In US20020052370A1, “Cyclopentyl-substituted glutaramide derivatives as inhibitors of neutral endopeptidase” (priority 2000, published 2002):

Experiments:
[1] = test system: vaginal and clitoral blood flow; assay: Anaesthetised rabbit model of sexual arousal: pelvic nerve stimulated genital blood flow by laser Doppler; format: in vivo, Female New Zealand rabbits
Excerpt: Animal Model of arousal response
We have developed an animal model that mimics the physiological arousal response observed during female sexual arousal and directly reflects the clinical data obtained in human volunteers. The model uses Laser Doppler technologies to record small changes in vaginal and clitoral blood flow induced by pelvic nerve stimulation or vasoactive neurotransmitters. During sexual arousal there is an increase in genital blood flow resulting from increased innervation from the pelvic nerve. This increase in genital blood flow leads to increased genital lubribriation and genital sensitivity which are associated with sexual arousal. The major cause of FSAD is decreased genital blood flow and this manifests itself as reduced vaginal, labial and clitoral engorgement. Treatment of women with FSAD is achievable by restoration of the normal sexual arousal response. This can be achieved by enhancing genital blood flow.
The title product from Example 29 was administered using this animal model according to the following protocol to show an enhancement in pelvic nerve stimulated increases in genital blood flow in the rabbit.
Two routes of administration were studied: a) intravenous administration and b) topical administration. Both studies used the anesthatised rabbit model according to the following protocol.
Female New Zealand rabbits (˜2.5 kg) were pre-medicated with a combination of Medetomidine (Domitor®) 0.5 ml/kg i.m., and Ketamine (Vetalar®) 0.25 ml/kg i.m. whilst maintaining oxygen intake via a face mask. The rabbits were tracheotomised using a Portex™ uncuffed endotracheal tube 3 ID, connected to ventilator and maintained a ventilation rate of 30-40 breaths per minute, with an approximate tidal volume of 18-20 ml, and a maximum airway pressure of 10 cm H2O. Anaesthesia was then switched to Isoflurane and ventilation continued with O2 at 2 l/min. The right marginal ear vein was cannulated using a 23 G or 24 G catheter, and Lactated Ringer solution perfused at 0.5 ml/min. The rabbit was maintained at 3% Isoflurane during invasive surgery, dropping to 2% for maintenance anaesthesia.
A ventral midline incision was made into the abdominal cavity. The incision was about 5 cm in length just above the pubis. The fat and muscle was bluntly dissected away to reveal the hypogastric nerve which runs down the body cavity. It was essential to keep close to the side curve of the pubis wall in order to avoid damaging the femoral vein and artery which lie above the pubis. The sciatic and pelvic nerves lie deeper and were located after further dissection on the dorsal side of the rabbit. Once the sciatic nerve is identified, the pelvic nerve was easily located. The term pelvic nerve is loosely applied; anatomy books on the subject fail to identify the nerves in sufficient detail. However, stimulation of the nerve causes an increase in vaginal and clitoral blood flow, and innervation of the pelvic region. The pelvic nerve was freed away from surrounding tissue and a Harvard bipolar stimulating electrode was placed around the nerve. The nerve was slightly lifted to give some tension, then the electrode was secured in position. Approximately 1 ml of light paraffin oil was placed around the nerve and electrode. […]
A frequency response curve was determined at the start of each experiment in order to determine the optimum frequency to use as a sub-maximal response, normally 4 Hz. […]

[2] = 1.0 mg/kg iv bolus infusion, submaximal stimulation (eg 4 Hz), anaesthetised rabbit, n=3

Row | Compound | increase in clitoral blood flow (peak, pelvic nerve stimulated) [1, 2] [%] | increase in vaginal blood flow (peak, pelvic nerve stimulated) [1, 2] [%] | pelvic nerve stimulated increases in genital blood flow ([1]; both intravenous and topical administration, clinically relevant doses, rabbit) | peak pelvic nerve stimulated increase in vaginal blood flow ([1]; intravaginal topical application (0.2 mg/ml printed), vs mean control flow increases, n=4, P<0.001) | basal (non-stimulated) vaginal blood flow ([1]; intravaginal topical application, compared to control flow, n=4) | melting point [°C]
1 | CCC[C@H](CC1(C(=O)Nc2nnc(CC)s2)CCCC1)C(=O)O [Example 29, (2R)-2-[(1-{[(5-Ethyl-1,3,4-thiadiazol-2-yl)amino]carbonyl}cyclopentyl)methyl]pentanoic acid] | 131 | 92 | significantly enhanced | significantly enhanced | no effect | 
2 | O=C(O)C(CCc1ccccc1)CC1(C(=O)Nc2cccnc2)CCCC1 (stereo not drawn) [Example 41, 4-Phenyl-2-({1-[(3-pyridinylamino)carbonyl]cyclopentyl}methyl)butanoic acid] |  |  |  |  |  | 80 to 85
